Measured values: PubChem BioAssay (NCI)
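Growth conditions: 96-well plates. Treatment: test compound, 48 hours, 5 concentrations. Analysis: linear interpolation between bracketing concentrations; unreached endpoints set to highest concentration. TGI denotes the concentration required for complete inhibition of growth.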

What was measured:
Assay in all cases: NCI anticancer screen, dose series, 48 h
786-0 renal = tested on: 786-0 renal
A498 renal = tested on: A498 renal
A549 NSCLC = tested on: A549 NSCLC
ACHN renal = tested on: ACHN renal
CAKI-1 renal = tested on: CAKI-1 renal
CCRF-CEM leukemia = tested on: CCRF-CEM leukemia
COLO 205 colon = tested on: COLO 205 colon
DLD-1 colon = tested on: DLD-1 colon
DMS 114 small cell lung = tested on: DMS 114 small cell lung
DMS 273 small cell lung = tested on: DMS 273 small cell lung
EKVX NSCLC = tested on: EKVX NSCLC
HCC-2998 colon = tested on: HCC-2998 colon
HCT-116 colon = tested on: HCT-116 colon
HCT-15 colon = tested on: HCT-15 colon
HL-60(TB) leukemia = tested on: HL-60(TB) leukemia
HOP-18 NSCLC = tested on: HOP-18 NSCLC
HOP-92 NSCLC = tested on: HOP-92 NSCLC
HT29 colon = tested on: HT29 colon
IGROV1 ovarian = tested on: IGROV1 ovarian
K-562 leukemia = tested on: K-562 leukemia
KM12 colon = tested on: KM12 colon
KM20L2 colon = tested on: KM20L2 colon
LOX IMVI melanoma = tested on: LOX IMVI melanoma
LXFL 529 NSCLC = tested on: LXFL 529 NSCLC
M14 melanoma = tested on: M14 melanoma
M19-MEL melanoma = tested on: M19-MEL melanoma
MALME-3M melanoma = tested on: MALME-3M melanoma
MOLT-4 leukemia = tested on: MOLT-4 leukemia
NCI-H226 lung = tested on: NCI-H226 lung
NCI-H23 lung = tested on: NCI-H23 lung
NCI-H522 lung = tested on: NCI-H522 lung
OVCAR-3 ovarian = tested on: OVCAR-3 ovarian
OVCAR-4 ovarian = tested on: OVCAR-4 ovarian
OVCAR-5 ovarian = tested on: OVCAR-5 ovarian
OVCAR-8 ovarian = tested on: OVCAR-8 ovarian
RPMI-8226 leukemia = tested on: RPMI-8226 leukemia
RXF 393 renal = tested on: RXF 393 renal
RXF-631 renal = tested on: RXF-631 renal
SF-268 CNS = tested on: SF-268 CNS
SF-295 CNS = tested on: SF-295 CNS
SF-539 CNS = tested on: SF-539 CNS
SK-MEL-2 melanoma = tested on: SK-MEL-2 melanoma
SK-MEL-28 melanoma = tested on: SK-MEL-28 melanoma
SK-MEL-5 melanoma = tested on: SK-MEL-5 melanoma
SK-OV-3 ovarian = tested on: SK-OV-3 ovarian
SN12C renal = tested on: SN12C renal
SNB-19 CNS = tested on: SNB-19 CNS
SNB-75 CNS = tested on: SNB-75 CNS
SNB-78 CNS = tested on: SNB-78 CNS
SW-620 colon = tested on: SW-620 colon
TK-10 renal = tested on: TK-10 renal
U251 CNS = tested on: U251 CNS
UACC-257 melanoma = tested on: UACC-257 melanoma
UACC-62 melanoma = tested on: UACC-62 melanoma
UO-31 renal = tested on: UO-31 renal
HOP-62 NSCLC = tested on: HOP-62 NSCLC
NCI-H460 lung = tested on: NCI-H460 lung
SR leukemia = tested on: SR leukemia

`CC12OC3(C)OC(=O)C(c4ccccc4)(O1)C3(C)O2` (stereo unspecified) was tested, and the TGI (786-0 renal) was > 100 µM, the TGI (A498 renal) was > 100 µM and the TGI (A549 NSCLC) was > 100 µM. For the same molecule, the TGI (ACHN renal) was > 100 µM, the TGI (CAKI-1 renal) was > 100 µM and the TGI (CCRF-CEM leukemia) was > 100 µM. The TGI (COLO 205 colon) was > 100 µM, the TGI (DLD-1 colon) was > 100 µM and the TGI (DMS 114 small cell lung) was > 100 µM. The TGI (DMS 273 small cell lung) was > 100 µM, the TGI (EKVX NSCLC) was > 100 µM and the TGI (HCC-2998 colon) was > 100 µM. The TGI (HCT-116 colon) was > 100 µM, the TGI (HCT-15 colon) was > 100 µM and the TGI (HL-60(TB) leukemia) was > 100 µM. The TGI (HOP-18 NSCLC) was > 100 µM, the TGI (HOP-92 NSCLC) was > 100 µM and the TGI (HT29 colon) was > 100 µM. The TGI (IGROV1 ovarian) was > 100 µM, the TGI (K-562 leukemia) was > 100 µM and the TGI (KM12 colon) was > 100 µM. The TGI (KM20L2 colon) was > 100 µM, the TGI (LOX IMVI melanoma) was > 100 µM and the TGI (LXFL 529 NSCLC) was > 100 µM. The TGI (M14 melanoma) was > 100 µM, the TGI (M19-MEL melanoma) was > 100 µM and the TGI (MALME-3M melanoma) was > 100 µM. The TGI (MOLT-4 leukemia) was > 100 µM, the TGI (NCI-H226 lung) was > 100 µM and the TGI (NCI-H23 lung) was > 100 µM. The TGI (NCI-H522 lung) was > 100 µM, the TGI (OVCAR-3 ovarian) was > 100 µM and the TGI (OVCAR-4 ovarian) was > 100 µM. The TGI (OVCAR-5 ovarian) was > 100 µM, the TGI (OVCAR-8 ovarian) was > 100 µM and the TGI (RPMI-8226 leukemia) was > 100 µM. For the same molecule, the TGI (RXF 393 renal) was > 100 µM, the TGI (RXF-631 renal) was > 100 µM and the TGI (SF-268 CNS) was > 100 µM. The TGI (SF-295 CNS) was > 100 µM, the TGI (SF-539 CNS) was > 100 µM and the TGI (SK-MEL-2 melanoma) was > 100 µM. For the same molecule, the TGI (SK-MEL-28 melanoma) was > 100 µM, the TGI (SK-MEL-5 melanoma) was > 100 µM and the TGI (SK-OV-3 ovarian) was > 100 µM. The TGI (SN12C renal) was > 100 µM, the TGI (SNB-19 CNS) was > 100 µM and the TGI (SNB-75 CNS) was > 100 µM. The TGI (SNB-78 CNS) was > 100 µM, the TGI (SW-620 colon) was > 100 µM and the TGI (TK-10 renal) was > 100 µM. For the same molecule, the TGI (U251 CNS) was > 100 µM, the TGI (UACC-257 melanoma) was > 100 µM and the TGI (UACC-62 melanoma) was > 100 µM. The TGI (UO-31 renal) was > 100 µM.

For `CC1(C)C2CCC13C(=O)C1OC3(C2)C2C(=O)N(c3ccccc3)C(=O)C12` (stereo unspecified), the TGI (786-0 renal) was > 100 µM, the TGI (A498 renal) was > 100 µM and the TGI (A549 NSCLC) was > 100 µM. The TGI (ACHN renal) was > 100 µM, the TGI (CAKI-1 renal) was > 100 µM and the TGI (CCRF-CEM leukemia) was > 100 µM. For the same molecule, the TGI (COLO 205 colon) was > 100 µM, the TGI (DMS 114 small cell lung) was > 100 µM and the TGI (DMS 273 small cell lung) was > 100 µM. For the same molecule, the TGI (EKVX NSCLC) was > 100 µM, the TGI (HCC-2998 colon) was > 100 µM and the TGI (HCT-116 colon) was > 100 µM. The TGI (HCT-15 colon) was > 100 µM, the TGI (HL-60(TB) leukemia) was > 100 µM and the TGI (HOP-18 NSCLC) was > 100 µM. The TGI (HOP-62 NSCLC) was > 100 µM, the TGI (HT29 colon) was > 100 µM and the TGI (IGROV1 ovarian) was > 100 µM. For the same molecule, the TGI (K-562 leukemia) was > 100 µM, the TGI (KM12 colon) was > 100 µM and the TGI (KM20L2 colon) was > 100 µM. For the same molecule, the TGI (LOX IMVI melanoma) was > 100 µM, the TGI (LXFL 529 NSCLC) was > 100 µM and the TGI (M14 melanoma) was > 100 µM. For the same molecule, the TGI (MALME-3M melanoma) was > 100 µM, the TGI (MOLT-4 leukemia) was > 100 µM and the TGI (NCI-H226 lung) was > 100 µM. For the same molecule, the TGI (NCI-H23 lung) was > 100 µM, the TGI (NCI-H460 lung) was > 100 µM and the TGI (NCI-H522 lung) was 49.1 µM. For the same molecule, the TGI (OVCAR-3 ovarian) was > 100 µM, the TGI (OVCAR-4 ovarian) was > 100 µM and the TGI (OVCAR-5 ovarian) was > 100 µM. For the same molecule, the TGI (OVCAR-8 ovarian) was > 100 µM, the TGI (RPMI-8226 leukemia) was > 100 µM and the TGI (RXF 393 renal) was > 100 µM. The TGI (RXF-631 renal) was > 100 µM, the TGI (SF-268 CNS) was > 100 µM and the TGI (SF-295 CNS) was > 100 µM. The TGI (SF-539 CNS) was > 100 µM, the TGI (SK-MEL-2 melanoma) was > 100 µM and the TGI (SK-MEL-5 melanoma) was > 100 µM. For the same molecule, the TGI (SK-OV-3 ovarian) was > 100 µM, the TGI (SN12C renal) was > 100 µM and the TGI (SNB-19 CNS) was > 100 µM. The TGI (SNB-75 CNS) was > 100 µM, the TGI (SNB-78 CNS) was > 100 µM and the TGI (SW-620 colon) was > 100 µM. For the same molecule, the TGI (TK-10 renal) was > 100 µM, the TGI (U251 CNS) was > 100 µM and the TGI (UACC-257 melanoma) was > 100 µM. For the same molecule, the TGI (UACC-62 melanoma) was > 100 µM and the TGI (UO-31 renal) was > 100 µM.

`CC1=C(c2cc(C(=O)Nc3cc(C)ccc3C)nc(N)n2)Sc2ccccc2N1` was tested, and the TGI (786-0 renal) was > 100 µM, the TGI (A498 renal) was > 100 µM and the TGI (A549 NSCLC) was > 100 µM. For the same molecule, the TGI (ACHN renal) was > 100 µM, the TGI (CAKI-1 renal) was > 100 µM and the TGI (CCRF-CEM leukemia) was > 100 µM. The TGI (COLO 205 colon) was > 100 µM, the TGI (DLD-1 colon) was > 100 µM and the TGI (DMS 114 small cell lung) was > 100 µM. The TGI (DMS 273 small cell lung) was > 100 µM, the TGI (EKVX NSCLC) was > 100 µM and the TGI (HCC-2998 colon) was > 100 µM. The TGI (HCT-116 colon) was > 100 µM, the TGI (HCT-15 colon) was > 100 µM and the TGI (HL-60(TB) leukemia) was > 100 µM. For the same molecule, the TGI (HOP-18 NSCLC) was > 100 µM, the TGI (HOP-62 NSCLC) was > 100 µM and the TGI (HOP-92 NSCLC) was > 100 µM. The TGI (HT29 colon) was > 100 µM, the TGI (IGROV1 ovarian) was > 100 µM and the TGI (K-562 leukemia) was > 100 µM. The TGI (KM12 colon) was > 100 µM, the TGI (KM20L2 colon) was > 100 µM and the TGI (LOX IMVI melanoma) was > 100 µM. The TGI (LXFL 529 NSCLC) was > 100 µM, the TGI (M14 melanoma) was > 100 µM and the TGI (M19-MEL melanoma) was > 100 µM. The TGI (MALME-3M melanoma) was > 100 µM, the TGI (MOLT-4 leukemia) was > 100 µM and the TGI (NCI-H226 lung) was > 100 µM. For the same molecule, the TGI (NCI-H23 lung) was > 100 µM, the TGI (NCI-H460 lung) was > 100 µM and the TGI (NCI-H522 lung) was > 100 µM. The TGI (OVCAR-3 ovarian) was > 100 µM, the TGI (OVCAR-4 ovarian) was > 100 µM and the TGI (OVCAR-5 ovarian) was > 100 µM. The TGI (OVCAR-8 ovarian) was > 100 µM, the TGI (RPMI-8226 leukemia) was > 100 µM and the TGI (RXF 393 renal) was > 100 µM. The TGI (RXF-631 renal) was > 100 µM, the TGI (SF-268 CNS) was > 100 µM and the TGI (SF-295 CNS) was > 100 µM. The TGI (SF-539 CNS) was > 100 µM, the TGI (SK-MEL-2 melanoma) was > 100 µM and the TGI (SK-MEL-28 melanoma) was > 100 µM. For the same molecule, the TGI (SK-MEL-5 melanoma) was > 100 µM, the TGI (SK-OV-3 ovarian) was > 100 µM and the TGI (SN12C renal) was > 100 µM. For the same molecule, the TGI (SNB-19 CNS) was > 100 µM, the TGI (SNB-75 CNS) was > 100 µM and the TGI (SNB-78 CNS) was > 100 µM. The TGI (SR leukemia) was > 100 µM, the TGI (SW-620 colon) was > 100 µM and the TGI (TK-10 renal) was > 100 µM. The TGI (U251 CNS) was > 100 µM, the TGI (UACC-257 melanoma) was > 100 µM and the TGI (UACC-62 melanoma) was > 100 µM. The TGI (UO-31 renal) was > 100 µM.
